Test results taken from US20230150974A1 (Foghorn Therapeutics Inc., priority 2020, published 2023).

Tests used:
HiBit-BRG1 = molecular target: T1, HiBit-BRG1 (Homo sapiens, UniProt P51532); assay: HiBit-BRG1 cell-based degradation assay (Nano-Glo HiBiT Lytic Detection); conditions: HeLa cells expressing HiBit-BRG1 and LgBit, 24 h; for DC50: read-out: BRG1 HiBit Degradation IC50; for Dmax: read-out: BRG1 HiBit Degradation Maximum (%)
T1 construct: expressed in transfected cells
In short: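 Stable HeLa line co-expressing HiBit-BRG1 and LgBit, 5000 cells/well, treated 24 h in a tissue culture incubator. Lysed with Nano-Glo HiBiT lytic reagent, luminescence read. % degradation normalized to DMSO (high control) and 2 μM reference BRM/BRG1 degrader (low control).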

HiBiT-BRM = molecular target: T2, HiBiT-BRM (Homo sapiens, UniProt P51531); assay: HiBiT-BRM cell-based degradation assay (Nano-Glo HiBiT Lytic Detection); conditions: HeLa cells expressing HiBiT-BRM, 24 h; for DC50: read-out: BRM HiBit Degradation IC50
T2 construct: expressed in transfected cells
T2 sequence (P51531 whole entry): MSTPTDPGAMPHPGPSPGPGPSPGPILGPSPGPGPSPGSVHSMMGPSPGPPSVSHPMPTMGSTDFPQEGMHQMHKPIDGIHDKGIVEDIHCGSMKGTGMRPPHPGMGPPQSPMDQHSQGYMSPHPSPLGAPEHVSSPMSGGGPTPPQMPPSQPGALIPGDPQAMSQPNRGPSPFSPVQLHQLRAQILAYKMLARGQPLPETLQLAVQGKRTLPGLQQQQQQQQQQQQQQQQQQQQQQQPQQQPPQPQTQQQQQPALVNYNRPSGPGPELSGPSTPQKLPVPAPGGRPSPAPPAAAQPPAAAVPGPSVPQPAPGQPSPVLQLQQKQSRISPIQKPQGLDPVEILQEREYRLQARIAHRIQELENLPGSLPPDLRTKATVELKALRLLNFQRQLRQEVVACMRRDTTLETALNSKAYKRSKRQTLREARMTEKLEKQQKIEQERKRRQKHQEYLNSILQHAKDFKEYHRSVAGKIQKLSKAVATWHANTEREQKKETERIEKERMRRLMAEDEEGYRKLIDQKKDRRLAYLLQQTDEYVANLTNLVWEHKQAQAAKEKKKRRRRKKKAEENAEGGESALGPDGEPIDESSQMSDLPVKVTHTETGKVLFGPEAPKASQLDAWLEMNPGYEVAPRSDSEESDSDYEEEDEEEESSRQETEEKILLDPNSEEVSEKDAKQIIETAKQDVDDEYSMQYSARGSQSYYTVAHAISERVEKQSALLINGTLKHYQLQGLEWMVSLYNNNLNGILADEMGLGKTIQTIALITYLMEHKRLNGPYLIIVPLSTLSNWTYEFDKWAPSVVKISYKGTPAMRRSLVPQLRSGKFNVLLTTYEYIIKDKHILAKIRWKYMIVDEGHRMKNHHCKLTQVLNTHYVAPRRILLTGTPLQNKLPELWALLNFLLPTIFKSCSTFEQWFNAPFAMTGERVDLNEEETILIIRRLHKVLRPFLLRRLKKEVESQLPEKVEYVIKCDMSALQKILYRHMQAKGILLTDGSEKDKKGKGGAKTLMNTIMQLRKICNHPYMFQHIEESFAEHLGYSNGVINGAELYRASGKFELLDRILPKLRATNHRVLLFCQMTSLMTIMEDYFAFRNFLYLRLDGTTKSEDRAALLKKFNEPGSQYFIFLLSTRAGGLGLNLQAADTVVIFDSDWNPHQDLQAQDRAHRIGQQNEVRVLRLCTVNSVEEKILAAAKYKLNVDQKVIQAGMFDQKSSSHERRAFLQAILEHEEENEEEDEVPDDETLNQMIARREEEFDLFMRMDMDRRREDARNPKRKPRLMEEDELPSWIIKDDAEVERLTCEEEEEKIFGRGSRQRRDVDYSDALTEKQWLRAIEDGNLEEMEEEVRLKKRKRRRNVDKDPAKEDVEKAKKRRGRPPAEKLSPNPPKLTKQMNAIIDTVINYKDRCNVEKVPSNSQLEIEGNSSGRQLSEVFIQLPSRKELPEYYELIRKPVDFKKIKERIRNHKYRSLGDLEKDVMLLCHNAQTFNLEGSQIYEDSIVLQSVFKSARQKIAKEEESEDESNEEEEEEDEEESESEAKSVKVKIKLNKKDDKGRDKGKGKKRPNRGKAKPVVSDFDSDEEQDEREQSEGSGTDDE
In short: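 Luminescence from HiBiT–LgBiT complementation in lysates of a stable HiBiT-BRM HeLa line measured after 24 h compound exposure. Degradation expressed as percent relative to DMSO-treated cells and cells given 2 μM of a known BRM/BRG1 degrader.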

T1 sequence (P51532 whole entry): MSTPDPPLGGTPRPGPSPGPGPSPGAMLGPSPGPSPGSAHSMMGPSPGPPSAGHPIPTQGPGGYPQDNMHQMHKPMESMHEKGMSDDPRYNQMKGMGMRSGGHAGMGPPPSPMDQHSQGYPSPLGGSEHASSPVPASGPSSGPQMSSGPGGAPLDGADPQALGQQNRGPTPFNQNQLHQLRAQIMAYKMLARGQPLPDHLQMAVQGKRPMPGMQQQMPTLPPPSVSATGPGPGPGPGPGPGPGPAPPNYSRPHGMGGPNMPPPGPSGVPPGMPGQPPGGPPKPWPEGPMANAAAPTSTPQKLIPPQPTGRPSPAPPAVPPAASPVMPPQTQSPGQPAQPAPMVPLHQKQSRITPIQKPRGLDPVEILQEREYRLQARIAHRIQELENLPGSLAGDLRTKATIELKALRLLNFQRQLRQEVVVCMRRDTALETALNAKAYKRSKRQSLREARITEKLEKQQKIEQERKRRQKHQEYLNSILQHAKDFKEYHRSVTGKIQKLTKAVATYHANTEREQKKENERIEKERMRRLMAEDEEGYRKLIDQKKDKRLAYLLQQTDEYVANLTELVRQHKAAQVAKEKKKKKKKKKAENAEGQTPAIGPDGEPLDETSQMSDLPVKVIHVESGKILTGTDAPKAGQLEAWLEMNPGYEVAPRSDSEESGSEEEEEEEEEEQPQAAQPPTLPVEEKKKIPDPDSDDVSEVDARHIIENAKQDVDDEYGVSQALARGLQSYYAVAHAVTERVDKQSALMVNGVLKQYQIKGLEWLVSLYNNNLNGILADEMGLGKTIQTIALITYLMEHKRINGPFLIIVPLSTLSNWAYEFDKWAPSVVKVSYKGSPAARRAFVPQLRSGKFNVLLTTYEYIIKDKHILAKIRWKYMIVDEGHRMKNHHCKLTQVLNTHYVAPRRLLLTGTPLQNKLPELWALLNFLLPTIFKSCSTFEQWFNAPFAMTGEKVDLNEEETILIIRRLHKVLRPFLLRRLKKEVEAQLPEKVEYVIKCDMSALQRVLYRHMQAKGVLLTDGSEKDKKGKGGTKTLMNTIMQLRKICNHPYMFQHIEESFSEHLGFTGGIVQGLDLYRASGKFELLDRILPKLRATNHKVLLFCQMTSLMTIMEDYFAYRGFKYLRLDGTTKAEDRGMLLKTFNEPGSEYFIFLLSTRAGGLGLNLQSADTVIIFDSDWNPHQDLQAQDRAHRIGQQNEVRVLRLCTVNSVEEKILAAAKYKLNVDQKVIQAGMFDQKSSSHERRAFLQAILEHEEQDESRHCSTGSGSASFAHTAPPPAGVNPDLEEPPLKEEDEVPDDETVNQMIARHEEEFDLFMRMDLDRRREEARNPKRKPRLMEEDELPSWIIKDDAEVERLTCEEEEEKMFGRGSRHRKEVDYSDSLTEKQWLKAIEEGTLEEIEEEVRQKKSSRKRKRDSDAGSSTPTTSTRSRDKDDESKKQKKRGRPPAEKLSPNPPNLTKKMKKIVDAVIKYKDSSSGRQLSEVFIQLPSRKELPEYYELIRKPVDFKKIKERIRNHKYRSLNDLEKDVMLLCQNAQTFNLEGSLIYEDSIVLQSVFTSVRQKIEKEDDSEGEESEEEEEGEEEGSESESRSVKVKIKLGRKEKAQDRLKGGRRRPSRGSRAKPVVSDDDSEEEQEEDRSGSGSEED

Compound	DC50 (HiBit-BRG1) [nM]	Dmax (HiBit-BRG1) [%]	BRM HiBit Degradation Maximum (%) (HiBiT-BRM)	DC50 (HiBiT-BRM) [nM]
Nc1nnc(-c2ccccc2O)cc1N1CCN(CCNC(=O)CCCCOc2cccc3c2C(=O)N(C2CCC(=O)NC2=O)C3=O)CC1 (centres unmarked) [Compound 89, N-(2-[4-[3-amino-6-(2-hydroxyphenyl)pyridazin-4-yl]piperazin-1-yl]ethyl)-5-[[2-(2,6-dioxopiperidin-3-yl)-1,3-dioxoisoindol-4-yl]oxy]pentanamide]	> 1000	< 50	C (“C” indicates maximum degradation <50%)	> 1000
Nc1nnc(-c2ccccc2O)cc1N1CCN(CCNC(=O)CCCCCCCOc2cccc3c2C(=O)N(C2CCC(=O)NC2=O)C3=O)CC1 (centres unmarked) [Compound 90, N-(2-[4-[3-amino-6-(2-hydroxyphenyl)pyridazin-4-yl]piperazin-1-yl]ethyl)-8-[[2-(2,6-dioxopiperidin-3-yl)-1,3-dioxo-2,3-dihydro-1H-isoindol-4-yl]oxy]octanamide]	> 1000	< 50	C (“C” indicates maximum degradation <50%)	> 1000
Nc1nnc(-c2ccccc2O)cc1N1CCN(CCNC(=O)CCOCCOCCNc2ccc3c(c2)C(=O)N(C2CCC(=O)NC2=O)C3=O)CC1 (centres unmarked) [Compound 91, N-(2-[4-[3-amino-6-(2-hydroxyphenyl)pyridazin-4-yl]piperazin-1-yl]ethyl)-3-[2-(2-[[2-(2,6-dioxopiperidin-3-yl)-1,3-dioxo-2,3-dihydro-1H-isoindol-5-yl]amino]ethoxy)ethoxy]propanamide]	> 1000	< 50	C (“C” indicates maximum degradation <50%)	> 1000
Nc1nnc(-c2ccccc2O)cc1N1CCN(CCNC(=O)CCCCCCCCNc2ccc3c(c2)C(=O)N(C2CCC(=O)NC2=O)C3=O)CC1 (centres unmarked) [Compound 92]	> 1000	< 50	C (“C” indicates maximum degradation <50%)	> 1000
Nc1nnc(-c2ccccc2O)cc1N1CCN(CCNC(=O)CCOCCOCCNc2cccc3c2C(=O)N(C2CCC(=O)NC2=O)C3=O)CC1 (centres unmarked) [Compound 93]	> 1000	< 50	C (“C” indicates maximum degradation <50%)	> 1000
Cc1ncsc1-c1ccc(CNC(=O)[C@@H]2C[C@@H](O)CN2C(=O)[C@@H](NC(=O)CCCCCCCNC(=O)CN2CCN(c3cc(-c4ccccc4O)nnc3N)CC2)C(C)(C)C)cc1 [Compound 94, (2S,4R)-1-((S)-2-(8-(2-(4-(3-amino-6-(2-hydroxyphenyl)pyridazin-4-yl)piperazin-1-yl)acetamido)octanamido)-3,3-dimethylbutanoyl)-4-hydroxy-N-(4-(4-methylthiazol-5-yl)benzyl)pyrrolidine-2-carboxamide]	> 1000	< 50	A (“A” indicates maximum degradation ≥75%)	> 1000
Nc1nnc(-c2ccccc2O)cc1N1CCN(CC(=O)NCCCCCCCCNc2cccc3c2C(=O)N(C2CCC(=O)NC2=O)C3=O)CC1 (centres unmarked) [Compound 95, 2-(4-(3-amino-6-(2-hydroxyphenyl)pyridazin-4-yl)piperazin-1-yl)-N-(8-((2-(2,6-dioxopiperidin-3-yl)-1,3-dioxoisoindolin-4-yl)amino)octyl)acetamide]	> 1000	< 50	C (“C” indicates maximum degradation <50%)	> 1000
CN(CCNC(=O)CN1CCN(c2cc(-c3ccccc3O)nnc2N)CC1)CCNc1cccc2c1C(=O)N(C1CCC(=O)NC1=O)C2=O (centres unmarked) [Compound 96, 2-(4-(3-amino-6-(2-hydroxyphenyl)pyridazin-4-yl)piperazin-1-yl)-N-(2-((2-((2-(2,6-dioxopiperidin-3-yl)-1,3-dioxoisoindolin-4-yl)amino)ethyl)(methyl)amino)ethyl)acetamide]	> 1000	< 50	C (“C” indicates maximum degradation <50%)	> 1000
Nc1nnc(-c2ccccc2O)cc1N1CCN(CCNC(=O)CCCCCCCCNc2cccc3c2C(=O)N(C2CCC(=O)NC2=O)C3=O)CC1 (centres unmarked) [Compound 97, N-(2-[4-[3-amino-6-(2-hydroxyphenyl)pyridazin-4-yl]piperazin-1-yl]ethyl)-9-[[2-(2,6-dioxopiperidin-3-yl)-1,3-dioxoisoindol-4-yl]amino]nonanamide]	> 1000	< 50	C (“C” indicates maximum degradation <50%)	> 1000
Nc1nnc(-c2ccccc2O)cc1N1CCN(CCNC(=O)CCCCCCCCCNc2cccc3c2C(=O)N(C2CCC(=O)NC2=O)C3=O)CC1 (centres unmarked) [Compound 98, N-(2-[4-[3-amino-6-(2-hydroxyphenyl)pyridazin-4-yl]piperazin-1-yl]ethyl)-10-[[2-(2,6-dioxopiperidin-3-yl)-1,3-dioxo-2,3-dihydro-1H-isoindol-4-yl]amino]decanamide]	> 1000	< 50	C (“C” indicates maximum degradation <50%)	> 1000
Nc1nnc(-c2ccccc2O)cc1N1CCN(CCNC(=O)CCCCCCCCCCNc2ccc3c(c2)C(=O)N(C2CCC(=O)NC2=O)C3=O)CC1 (centres unmarked) [Compound 99, N-(2-[4-[3-amino-6-(2-hydroxyphenyl)pyridazin-4-yl]piperazin-1-yl]ethyl)-11-[[2-(2,6-dioxopiperidin-3-yl)-1,3-dioxo-2,3-dihydro-1H-isoindol-5-yl]amino]undecanamide]	> 1000	< 50	C (“C” indicates maximum degradation <50%)	> 1000
Cc1ncsc1-c1ccc(CNC(=O)[C@@H]2C[C@@H](O)CN2C(=O)[C@@H](NC(=O)COCCOCCNC(=O)CN2CCN(c3cc(-c4ccccc4O)nnc3N)CC2)C(C)(C)C)cc1 [Compound 100, (2S,4R)-1-[(2S)-2-(2-[2-[2-(2-[4-[3-amino-6-(2-hydroxyphenyl)pyridazin-4-yl]piperazin-1-yl]acetamido)ethoxy]ethoxy]acetamido)-3,3-dimethylbutanoyl]-4-hydroxy-N-[[4-(4-methyl-1,3-thiazol-5-yl)phenyl]methyl]pyrrolidine-2-carboxamide]	> 1000	< 50	C (“C” indicates maximum degradation <50%)	> 1000
Cc1ncsc1-c1ccc(CNC(=O)[C@@H]2C[C@@H](O)CN2C(=O)[C@@H](NC(=O)CCCCCCCCCNC(=O)CN2CCN(c3cc(-c4ccccc4O)nnc3N)CC2)C(C)(C)C)cc1 [Compound 102, (2S,4R)-1-[(2S)-2-[10-(2-[4-[3-amino-6-(2-hydroxyphenyl)pyridazin-4-yl]piperazin-1-yl]acetamido)decanamido]-3,3-dimethylbutanoyl]-4-hydroxy-N-[[4-(4-methyl-1,3-thiazol-5-yl)phenyl]methyl]pyrrolidine-2-carboxamide]	> 1000	< 50	A (“A” indicates maximum degradation ≥75%)	> 100
Nc1nnc(-c2ccccc2O)cc1N1CCN(CC(=O)NCCCCNc2ccc3c(c2)C(=O)N(C2CCC(=O)NC2=O)C3=O)CC1 (centres unmarked) [Compound 103, 2-[4-[3-amino-6-(2-hydroxyphenyl)pyridazin-4-yl]piperazin-1-yl]-N-(4-[[2-(2,6-dioxopiperidin-3-yl)-1,3-dioxo-2,3-dihydro-1H-isoindol-5-yl]amino]butyl)acetamide]	> 1000	< 50	C (“C” indicates maximum degradation <50%)	> 1000
CN(CCNC(=O)COc1cccc2c1C(=O)N(C1CCC(=O)NC1=O)C2=O)CCNC(=O)CN1CCN(c2cc(-c3ccccc3O)nnc2N)CC1 (centres unmarked) [Compound 104, N-(2-[[2-(2-[4-[3-amino-6-(2-hydroxyphenyl)pyridazin-4-yl]piperazin-1-yl]acetamido)ethyl](methyl)amino]ethyl)-2-[[2-(2,6-dioxopiperidin-3-yl)-1,3-dioxo-2,3-dihydro-1H-isoindol-4-yl]oxy]acetamide]	> 1000	< 50	C (“C” indicates maximum degradation <50%)	> 1000
Cc1ncsc1-c1ccc(CNC(=O)[C@@H]2C[C@H](O)CN2C(=O)[C@@H](NC(=O)CCCCCCCCCNC(=O)c2ccc(CCOc3cc(-c4ccccc4O)nnc3N)cc2)C(C)(C)C)cc1 [Compound 105, (2S,4S)-1-((S)-2-(10-(4-(2-((3-amino-6-(2-hydroxyphenyl)pyridazin-4-yl)oxy)ethyl)benzamido)decanamido)-3,3-dimethylbutanoyl)-4-hydroxy-N-(4-(4-methylthiazol-5-yl)benzyl)pyrrolidine-2-carboxamide]	> 1000	< 50	C (“C” indicates maximum degradation <50%)	> 1000
Nc1nnc(-c2ccccc2O)cc1OCCc1ccc(CNC(=O)CCCNc2cccc3nnn(C4CCC(=O)NC4=O)c(=O)c23)cc1 (centres unmarked) [Compound 106, N-(4-(2-((3-amino-6-(2-hydroxyphenyl)pyridazin-4-yl)oxy)ethyl)benzyl)-4-((3-(2,6-dioxopiperidin-3-yl)-4-oxo-3,4-dihydrobenzo[d][1,2,3]triazin-5-yl)amino)butanamide]	> 1000	< 50	C (“C” indicates maximum degradation <50%)	> 1000
